As a reminder, the GI50 is the concentration giving 50% growth inhibition.

In one assay the target is tubulin (Sus scrofa, UniProt P02550+P02554). Kind of assay: In vitro tubulin polymerization assay. In kind it is biochemical. To be noted: at concentrations as high as 200 µM (data not shown).
The subject of assay [1] is breast cancer subpanel (six cell lines). Kind of assay: NCI-60 screen, breast cancer subpanel summary. It counts as cell-based. Conditions: Homo sapiens, T47D, read-out: GI50 values range, breast cancer subpanel.
Assay [2] deals with panel of 60 human cancer cell lines. As to the kind of experiment: NCI-60 cell line anti-cancer screen, whole panel summary. In kind it is cell-based. To be noted: read-out: average GI50 value against all the cancer cell lines screened, NCI-60 panel.

Bounds are passed on as bounds.

Chain of tubulin (P02550 whole entry): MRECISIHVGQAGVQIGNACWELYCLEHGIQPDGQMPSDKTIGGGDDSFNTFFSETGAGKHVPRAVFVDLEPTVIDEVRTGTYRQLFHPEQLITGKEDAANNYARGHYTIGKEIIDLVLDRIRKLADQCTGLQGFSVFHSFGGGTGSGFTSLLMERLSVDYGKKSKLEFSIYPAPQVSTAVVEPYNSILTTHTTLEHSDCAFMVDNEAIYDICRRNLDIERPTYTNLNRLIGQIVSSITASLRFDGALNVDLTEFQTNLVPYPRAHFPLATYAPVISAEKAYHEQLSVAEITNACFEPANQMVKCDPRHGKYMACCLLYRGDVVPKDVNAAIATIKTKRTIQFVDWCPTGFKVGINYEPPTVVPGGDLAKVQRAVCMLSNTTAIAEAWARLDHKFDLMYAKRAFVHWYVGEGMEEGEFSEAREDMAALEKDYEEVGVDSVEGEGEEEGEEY
Chain of tubulin (P02554 whole entry): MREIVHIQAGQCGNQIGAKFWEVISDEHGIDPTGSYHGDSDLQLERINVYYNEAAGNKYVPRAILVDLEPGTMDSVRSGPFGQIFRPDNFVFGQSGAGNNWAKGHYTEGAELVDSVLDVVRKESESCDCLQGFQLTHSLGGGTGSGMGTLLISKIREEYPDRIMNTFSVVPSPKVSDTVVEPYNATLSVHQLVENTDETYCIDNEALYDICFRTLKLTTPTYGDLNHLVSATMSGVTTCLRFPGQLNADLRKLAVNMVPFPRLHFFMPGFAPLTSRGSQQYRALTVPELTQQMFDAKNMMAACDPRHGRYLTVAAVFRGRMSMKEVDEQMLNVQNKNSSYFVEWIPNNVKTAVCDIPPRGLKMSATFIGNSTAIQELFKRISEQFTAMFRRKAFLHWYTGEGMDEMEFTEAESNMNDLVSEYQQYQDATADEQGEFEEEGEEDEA

Turning to `COc1cc(-c2nn(C)nc2-c2cc3ccccc3s2)cc(OC)c1OC` [Compound 9, 4-(benzo[b]thiophen-2-yl)-2-methyl-5-(3,4,5-trimethoxyphenyl)-2H-1,2,3-triazole], the “inhibition of tubulin polymerization” value at tubulin is “failed to inhibit tubulin polymerization”. Further, the GI50 in assay [1] was in the range of 40 to 1600 nM. With `COc1ccc(-c2n[nH]nc2-c2csc3ccccc23)cc1OC` [Compound 11b], the GI50 in assay [1] was in the range of 630 to 3210 nM. `COc1cc(-c2n[nH]nc2-c2c[nH]c3ccccc23)cc(OC)c1OC` [Compound 11d]: the GI50 is 424 nM in assay [2] and 28 to 89 nM in assay [1]. For `COc1cc(OC)cc(-c2n[nH]nc2-c2c[nH]c3ccccc23)c1` [Compound 11e], in that order: 856 nM and 17 to 76 nM. Regarding `COc1cc(-c2n[nH]nc2-c2cc3ccccc3s2)cc(OC)c1OC` [Compound 8a, 4-(benzo[b]thiophen-2-yl)-5-(3,4,5-trimeth-oxyphenyl)-2H-1,2,3-triazole], the GI50 in assay [1] is at most 14 nM.

The record behind these values is PMC4821443 (MedChemComm, 2015).
